In the NIST ThermoML archive (doi:10.1016/j.fluid.2010.01.007) one finds activity coefficient data, which are given here for 8 compounds.

± gives the expanded uncertainty stated by the source.

This data set is described as follows: activity coefficient (dimensionless); of the first substance listed, at infinite dilution; xn = mol fraction of the nth substance listed. The note with it: Liquid, Chromatography, x1 = 0.

Regarding `CCCCC1CO1` (stereo unspecified) [1,2-epoxyhexane] + CCCCn1cc[n+](C)c1.F[P-](F)(F)(F)(F)F, the activity coefficient was 1.94 ± 0.07 (334.8 K), 2.19 ± 0.08 (344.3 K), 2.2 ± 0.08 (353.9 K) and 2.14 ± 0.08 (363.4 K).

`CCC1CO1` (stereo unspecified) [ethyloxirane] + CCCCn1cc[n+](C)c1.F[B-](F)(F)F: the activity coefficient was found to be 2.62 ± 0.09 (325.2 K); 2.14 ± 0.08 (334.8 K); 2.08 ± 0.07 (344.3 K); 2.05 ± 0.07 (353.9 K); 2.1 ± 0.07 (363.4 K).

Turning to `CC1CO1` (stereo unspecified) [methyloxirane] + CCCCn1cc[n+](C)c1.F[P-](F)(F)(F)(F)F, the activity coefficient turned out to be 0.838 ± 0.021 (334.8 K), 0.828 ± 0.021 (344.3 K), 0.893 ± 0.021 (353.9 K) and 0.872 ± 0.024 (363.4 K).

As for `CC1CO1` (stereo unspecified) [methyloxirane] + CCCCn1cc[n+](C)c1.F[B-](F)(F)F, the activity coefficient (325.2 K) stood at 1.35 ± 0.04; the activity coefficient (334.8 K) was found to be 1.33 ± 0.04; the activity coefficient (344.3 K) came to 1.27 ± 0.03; the activity coefficient (353.9 K) came to 1.32 ± 0.04; the activity coefficient (363.4 K) came out at 1.41 ± 0.04.

Consider `CC1(C)CO1` [2,2-dimethyloxirane] + CCCCn1cc[n+](C)c1.F[B-](F)(F)F, for which the activity coefficient by setting is: (325.2 K) 2.19 ± 0.08; (334.8 K) 2.13 ± 0.07; (344.3 K) 2.11 ± 0.07; (353.9 K) 2.06 ± 0.07; (363.4 K) 2.18 ± 0.08.

Take `CCCCC1CO1` (stereo unspecified) [1,2-epoxyhexane] + CCCCn1cc[n+](C)c1.F[B-](F)(F)F: the activity coefficient reads like this: (325.2 K) 5.7 ± 0.2; (334.8 K) 5.31 ± 0.19; (344.3 K) 5.3 ± 0.19; (353.9 K) 5.14 ± 0.18; (363.4 K) 5.2 ± 0.18.

On to `CC1(C)CO1` [2,2-dimethyloxirane] + CCCCn1cc[n+](C)c1.F[P-](F)(F)(F)(F)F, for which the activity coefficient (334.8 K) came out at 1.09 ± 0.03, the activity coefficient (344.3 K) stood at 1.12 ± 0.03, the activity coefficient (353.9 K) was 1.21 ± 0.03 and the activity coefficient (363.4 K) was determined as 1.19 ± 0.04.

Regarding `CCC1CO1` (stereo unspecified) [ethyloxirane] + CCCCn1cc[n+](C)c1.F[P-](F)(F)(F)(F)F, the activity coefficient runs as follows: (334.8 K) 1.13 ± 0.03; (344.3 K) 1.13 ± 0.03; (353.9 K) 1.19 ± 0.03; (363.4 K) 1.16 ± 0.03.
